The supplement of paper PMC10331698
± gives the standard deviation of the averaged measurements.

Assays:
Experiment in all cases: level (log10 ratio to DMSO vehicle control); higher = higher biomarker level / cell amount than vehicle control
Conditions in all cases: in DMSO
1-(Perfluorohexyl)octane = compound: CCCCCCCCC(F)(F)C(F)(F)C(F)(F)C(F)(F)C(F)(F)C(F)(F)F [1-(Perfluorohexyl)octane]
Procedure: (§1)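 BioMAP Diversity Plus panel of 12 human primary cell co-culture systems (3C, 4H, LPS, SAg, BT, BF4T, BE3C, CASM3C, HDF3CGF, KF3CT, MyoF, Mphg). Compounds were added 1 h before stimulation and left for 24 h (MyoF 48 h; BT 72 h for soluble read-outs or 6 d for IgG). Biomarkers were read by ELISA, cytotoxicity by SRB, PBMC viability and proliferation by Alamar Blue. Each well value was divided by the mean of 8 DMSO control wells on the same plate and log10 transformed; duplicate blinded samples were tested at 4 concentrations.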

Azathioprine = compound: Cn1cnc([N+](=O)[O-])c1Sc1ncnc2[nH]cnc12 [Azathioprine]
Procedure: as §1

Perfluorooctanamide = compound: NC(=O)C(F)(F)C(F)(F)C(F)(F)C(F)(F)C(F)(F)C(F)(F)C(F)(F)F [Perfluorooctanamide]
Procedure: as §1

[1] = compound: O=C(O)C(F)(F)C(F)(F)C(F)(F)C(F)(F)C(F)(F)C(F)(F)C(F)(F)C(F)(F)Cl [9-Chloro-perfluorononanoic acid]
Procedure: as §1

[2] = compound: O=C(O)C(F)(F)OC(F)(F)C(F)(F)OC(F)(F)C(F)(F)C(F)(F)C(F)(F)F [Perfluoro-3,6-dioxadecanoic acid]
Procedure: as §1

[3] = compound: O=S(=O)(O)C(F)(F)C(F)(F)C(F)(F)C(F)(F)F [Perfluorobutanesulfonic acid]
Procedure: as §1

1H,1H-Heptafluorobutanol = compound: OCC(F)(F)C(F)(F)C(F)(F)F [1H,1H-Heptafluorobutanol]
Procedure: as §1

Row | Test System | level (log10) (1-(Perfluorohexyl)octane; 6700 nM) | level (log10) (1-(Perfluorohexyl)octane; 20000 nM) | level (log10) (Azathioprine; 1400 nM) | level (log10) (Azathioprine; 4200 nM) | level (log10) (Azathioprine; 13000 nM) | level (log10) (Azathioprine; 38000 nM) | level (log10) (Perfluorooctanamide; 6700 nM) | level (log10) (Perfluorooctanamide; 20000 nM) | level (log10) (Perfluorooctanamide; 60000 nM) | level (log10) ([1]; 6700 nM) | level (log10) ([1]; 20000 nM) | level (log10) ([2]; 6700 nM) | level (log10) ([2]; 20000 nM) | level (log10) ([2]; 60000 nM) | level (log10) ([3]; 6700 nM) | level (log10) ([3]; 20000 nM) | level (log10) ([3]; 60000 nM) | level (log10) (1H,1H-Heptafluorobutanol; 6700 nM) | level (log10) (1H,1H-Heptafluorobutanol; 20000 nM) | level (log10) (1H,1H-Heptafluorobutanol; 60000 nM)
1 | lMphg:IL-1alpha | -0.0215 ± 0.013 | 0.0085 ± 0.074 | 0.0185 ± 0.067 | 0.0045 ± 0.0078 | -0.0015 ± 0.023 | -0.005 ± 0.057 | 0.01 ± 0.034 | 0.0265 ± 0.054 | 0.04 ± 0.058 | 0.014 ± 0.027 | 0.0635 ± 0.046 | -0.0105 ± 0.056 | -0.021 ± 0.011 | 0.021 ± 0.011 | 0.0315 ± 0.016 | -0.0055 ± 0.056 | 0.034 ± 0.031 | 0.0275 ± 0.04 | 0.008 ± 0.018 | 0.015 ± 0.0014
2 | HDF3CGF:TIMP-1 | 0.0105 ± 0.039 | -0.0185 ± 0.03 | -0.0195 ± 0.005 | -0.0115 ± 0.033 | -0.018 ± 0.024 | -0.0695 ± 0.06 | -0.0405 ± 0.049 | -0.022 ± 0.02 | -0.0575 ± 0.0035 | -0.028 ± 0.027 | -0.0105 ± 0.056 | -0.0085 ± 0.00071 | 0.006 ± 0.11 | 0.0755 ± 0.083 | -0.032 ± 0.064 | 0.0125 ± 0.0078 | 0.0195 ± 0.011 | -0.021 ± 0.017 | -0.028 ± 0.0099 | -0.048 ± 0.11
3 | CASM3C:Serum Amyloid A | -0.02 ± 0.0057 | 0.0055 ± 0.066 | 0.033 ± 0.021 | -0.0125 ± 0.0021 | -0.031 ± 0.0085 | -0.0485 ± 0.066 | -0.034 ± 0.044 | -0.0465 ± 0.069 | -0.062 ± 0.051 | 0.001 ± 0.016 | 0.0285 ± 0.011 | 0.012 ± 0.025 | -0.004 ± 0.023 | 0.0405 ± 0.0021 | -0.0575 ± 0.08 | -0.0795 ± 0.071 | -0.068 ± 0.055 | -0.029 ± 0.04 | 0.012 ± 0.035 | 0.018 ± 0.021
4 | HDF3CGF:Proliferation 72hr | 0.0085 ± 0.077 | 0.0325 ± 0.005 | -0.0455 ± 0.079 | -0.061 ± 0.035 | -0.057 ± 0.0057 | -0.162 ± 0.027 | 0.0335 ± 0.049 | 0.004 ± 0.023 | -0.0165 ± 0.022 | 0.101 ± 0.022 | -0.081 ± 0.054 | 0.0245 ± 0.00071 | 0.116 ± 0.011 | -0.0545 ± 0.036 | -0.0045 ± 0.013 | -0.0195 ± 0.015 | 0.0155 ± 0.05 | -0.011 ± 0.023 | 0.0255 ± 0.032 | -0.029 ± 0.013
5 | MyoF:Collagen III | 0.019 ± 0.03 | -0.016 ± 0.0014 | -0.019 ± 0.021 | -0.0135 ± 0.016 | -0.0275 ± 0.0064 | -0.0115 ± 0.0092 | -0.0005 ± 0.029 | 0.0045 ± 0.033 | 0.002 ± 0.013 | -0.033 ± 0.027 | -0.498 ± 0.0085 | -0.024 ± 0.0057 | -0.0445 ± 0.0035 | -0.317 ± 0.014 | 0.02 ± 0.024 | 0.0265 ± 0.0064 | 0.0145 ± 0.0064 | 0.0065 ± 0.0035 | -0.0065 ± 0.005 | -0.0065 ± 0.0064
6 | KF3CT:CXCL9/MIG | 0.0085 ± 0.013 | 0.001 ± 0.0057 | -0.0015 ± 0.00071 | -0.008 ± 0.0014 | -0.005 ± 0.0099 | 0.0205 ± 0.015 | 0.0035 ± 0.039 | 0.0105 ± 0.016 | 0.018 ± 0.0042 | 0.0025 ± 0.0092 | -0.0015 ± 0.0021 | -0.0095 ± 0.0064 | -0.002 ± 0.0028 | -0.005 ± 0.0085 | 0.0185 ± 0.029 | 0.021 ± 0.017 | 0.0345 ± 0.0078 | -0.0015 ± 0.0021 | 0.002 ± 0.0028 | 0.0055 ± 0.005
7 | CASM3C:SRB | -0.0025 ± 0.0035 | -0.0085 ± 0.00071 | 0.0015 ± 0.0092 | 0.003 ± 0.0057 | -0.013 ± 0.0014 | -0.0365 ± 0.0078 | 0 ± 0.0071 | -0.002 ± 0.0014 | -0.003 ± 0.0014 | -0.001 ± 0.0028 | 0.0045 ± 0.0078 | 0.003 ± 0.0071 | -0.0025 ± 0.0092 | -0.0005 ± 0.0092 | -0.0045 ± 0.0035 | -0.0045 ± 0.0035 | -0.008 ± 0.0028 | -0.0025 ± 0.0092 | 0.0125 ± 0.0021 | 0.009 ± 0.0028
8 | MyoF:MMP-1 | -0.002 ± 0.017 | -0.01 ± 0.0085 | 0.0065 ± 0.047 | 0.0165 ± 0.019 | -0.0215 ± 0.021 | 0.0315 ± 0.0021 | -0.0075 ± 0.011 | -0.013 ± 0.04 | -0.0045 ± 0.026 | -0.028 ± 0.03 | -0.0585 ± 0.0064 | -0.003 ± 0.0085 | -0.03 ± 0.024 | 0.0505 ± 0.0064 | 0.0385 ± 0.005 | 0.065 ± 0.0071 | 0.0885 ± 0.0035 | -0.031 ± 0.0057 | -0.019 ± 0.011 | 0.012 ± 0.081
